We go through seven compounds from patent US7763621B2, “Vitronectin receptor antagonist derivatives, method for preparing same, use thereof as medicines and pharmaceutical compositions containing same” (Galapagos SAS, priority 2002, dated 2010).

human αVβ3 receptor, sequence (P06756 31-889 limits assumed): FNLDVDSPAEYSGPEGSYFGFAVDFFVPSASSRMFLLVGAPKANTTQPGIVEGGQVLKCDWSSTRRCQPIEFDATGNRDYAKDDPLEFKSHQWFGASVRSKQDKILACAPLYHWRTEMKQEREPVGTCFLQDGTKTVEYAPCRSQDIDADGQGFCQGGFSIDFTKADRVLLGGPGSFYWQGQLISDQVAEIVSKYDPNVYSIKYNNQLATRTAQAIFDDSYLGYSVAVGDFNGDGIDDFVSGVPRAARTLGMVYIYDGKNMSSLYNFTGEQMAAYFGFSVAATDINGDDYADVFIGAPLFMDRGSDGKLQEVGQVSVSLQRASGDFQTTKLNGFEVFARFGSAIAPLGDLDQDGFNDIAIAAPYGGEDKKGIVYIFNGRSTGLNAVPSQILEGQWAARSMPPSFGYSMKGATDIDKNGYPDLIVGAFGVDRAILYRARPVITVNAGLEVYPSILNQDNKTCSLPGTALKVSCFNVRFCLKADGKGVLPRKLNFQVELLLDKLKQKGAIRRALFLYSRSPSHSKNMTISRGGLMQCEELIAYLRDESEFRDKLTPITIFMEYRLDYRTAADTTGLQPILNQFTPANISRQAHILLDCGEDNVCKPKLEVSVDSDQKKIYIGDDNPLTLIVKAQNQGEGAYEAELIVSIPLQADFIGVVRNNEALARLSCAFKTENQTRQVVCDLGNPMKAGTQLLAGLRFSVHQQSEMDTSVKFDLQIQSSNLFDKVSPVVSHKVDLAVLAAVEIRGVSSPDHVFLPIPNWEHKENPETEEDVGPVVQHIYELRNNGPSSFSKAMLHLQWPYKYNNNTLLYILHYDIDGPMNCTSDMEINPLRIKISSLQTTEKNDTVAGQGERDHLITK
human αVβ3 receptor, sequence (P06756 891-1048 partner limits assumed): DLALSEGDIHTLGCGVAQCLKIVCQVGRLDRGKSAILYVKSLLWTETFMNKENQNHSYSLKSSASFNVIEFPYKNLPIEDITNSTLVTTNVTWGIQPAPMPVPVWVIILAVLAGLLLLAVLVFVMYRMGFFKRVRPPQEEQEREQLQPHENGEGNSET
human αVβ3 receptor, sequence (P05106 27-788): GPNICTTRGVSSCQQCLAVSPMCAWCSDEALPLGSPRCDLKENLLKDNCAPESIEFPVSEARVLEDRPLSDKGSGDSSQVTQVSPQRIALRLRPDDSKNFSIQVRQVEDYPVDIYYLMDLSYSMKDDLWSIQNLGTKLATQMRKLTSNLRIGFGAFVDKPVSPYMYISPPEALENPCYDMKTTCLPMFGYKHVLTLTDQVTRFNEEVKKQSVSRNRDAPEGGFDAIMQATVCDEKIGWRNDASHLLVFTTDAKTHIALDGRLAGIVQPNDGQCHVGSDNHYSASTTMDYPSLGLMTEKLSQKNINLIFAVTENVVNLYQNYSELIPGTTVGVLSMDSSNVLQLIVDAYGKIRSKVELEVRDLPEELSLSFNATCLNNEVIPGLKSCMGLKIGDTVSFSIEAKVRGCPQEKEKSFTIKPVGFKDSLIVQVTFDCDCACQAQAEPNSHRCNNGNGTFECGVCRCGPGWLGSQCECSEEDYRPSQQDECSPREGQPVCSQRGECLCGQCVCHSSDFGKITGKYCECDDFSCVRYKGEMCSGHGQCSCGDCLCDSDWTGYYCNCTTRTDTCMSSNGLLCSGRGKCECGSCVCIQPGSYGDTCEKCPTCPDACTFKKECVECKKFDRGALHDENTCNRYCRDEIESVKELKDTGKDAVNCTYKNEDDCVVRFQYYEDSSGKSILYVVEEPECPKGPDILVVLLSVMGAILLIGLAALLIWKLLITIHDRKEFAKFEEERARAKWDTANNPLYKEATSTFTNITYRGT

The target of the first experiment is human αVβ3 receptor (Homo sapiens, UniProt P05106+P06756). Briefly: Kistrin/Vitronectin receptor (αVβ3) ELISA test. Format: binding. The settings on record: co-incubated 3 hours at ambient temperature, read-out: K/VnR IC50. As for the experimental part:
Pharmacological Test: Kistrin/Vitronectin Receptor (αVβ3) ELISA Test
96-well MaxiSorp plates are coated overnight at […] with 100 μl of Kistrin at 1 μg/ml (dilution in coating buffer: 0.05M (carbonate)/NaOH pH 9.6. The next day, the wells are emptied and the ligands (kistrin) are then fixed (fixation buffers: PBS containing 0.5% BSA (pH=7.4)) for 1 hour at ambient temperature under gentle stirring of 125 rpm. The wells are washed six times (washing buffer: PBS containing 0.05% Tween 20 (pH 7.7) then the following is added per well and in this order:
40 μl of incubation buffer
10 μl of the dilution of the product to be tested (the products are diluted in a 50:50 DMSO/water mixture)
50 μl of human αVβ3 receptor (cf Pytella et al. Methods Enzymol. (1987) 144 (Dilution in incubation buffer, adapted according to the batch of receptor and according to the ligand). The ligand, the αVβ3 receptor and the products to be studied are co-incubated for 3 hours at ambient temperature with gentle stirring of 125 rpm.
The wells are again washed six times, then incubated for 2 hours at ambient temperature with gentle stirring of 125 rpm, in the presence of 100 μl of anti-receptor antibody coupled to a peroxidase (The 4B12-HRP antibody is diluted in incubation buffer (50 mM TRIS pH 7.4; 0.5% BSA; 0.05% Tween 20; 1 mM MnCl2; 50 μM CaCl2; 50 μM MgCl2; 100 mM NaCl). The dilution is to be adapted according to the batch of receptor.
The wells are then washed six times before measurement of the ligand-receptor bond is carried out using a peroxidase developer kit (TBM Microwell Peroxidase Substrate System Kirkegaard; Ref cat 50-76-00).
This kit contains a flask A of substrate (3,3′,5,5′-tetramethylebenzidine at 0.4 g/l) and a flask B (0.02% H2O2 in Citrate/Citric acid). Extemporaneously, one volume of A is mixed with one volume of B, then the reaction mixture is distributed at a rate of 100 μl/well.
The enzymatic reaction develops between 6 to 10 minutes for Kistrin/αVβ3 then its development is stopped by the addition of 100 μl of 1M phosphoric acid. The optical density is determined at 450 nm.
Expression of the Results
The following curve is plotted: the bond percentage as a function of the logarithm of each concentration of the tested product. For each product the IC50 is determined according to the following formula: IC50=(B0+Bmin)/2
B0=Maximum bond in the absence of any product
Bmin=Minimum bond in the presence of the highest concentration of the product.
For orientation: An ELISA detects its analyte on a solid surface through an enzyme-linked reagent.
Regarding `CCc1c(NCC(NC(=O)OCc2ccccc2)C(=O)O)ncnc1N1CCC(c2ccc3c(n2)NCCC3)CC1` (racemic) [Example 1, 3-[[5-ethyl-6-[4-(1,2,3,4-tetrahydro-1,8-naphthyridin-7-yl)-1-piperidinyl]-4-pyrimidinyl]amino]-N-[(phenylmethoxy)carbonyl]alanine, bis(trifluoroacetate)], the IC50 is 3 nM. With `CCc1c(NCC(NC(=O)OCc2ccccc2)C(=O)O)ncnc1N1CCC(C(=O)N=C2NCCCN2)CC1` (racemic) [Example 2, 3-[[5-ethyl-6-[4-[(1,2,3,4,5,6-hexahydro-2-pyrimidinyl)iminocarbonyl]-1-piperidinyl]-4-pyrimidinyl]amino]-N-[(phenylmethoxy)carbonyl]alanine], the IC50 was 160 nM. Take `Cc1c(NCC(NC(=O)OCc2ccccc2)C(=O)O)ncnc1N1CCC(c2ccc3c(n2)NCCC3)CC1` (racemic) [Example 3, 3-[[6-[4-(1,2,3,4-tetrahydro-1,8-naphthyridin-7-yl)-1-piperidinyl]-5-methyl-4-pyrimidinyl]amino]-N-[(phenylmethoxy)carbonyl]alanine]: the IC50 was found to be 3.1 nM. With `Cc1c(NCC(NC(=O)OCc2ccccc2)C(=O)O)ncnc1N1CCC(C(=O)N=C2NCCCN2)CC1` (racemic) [Example 4, 3-[[6-[4-[(1,2,3,4,5,6-hexahydro-2-pyrimidinyl)iminocarbonyl]-1-piperidinyl]-5-methyl-4-pyrimidinyl]amino]-N-[(phenylmethoxy)carbonyl]alanine], the IC50 amounted to 5.1 nM.

Another experiment deals with TPXT rats. The experiment can be described thus: Hypercalcemia induced by the parathyroid hormone (PTH) in a thyroparathyroidectomized (TPXT) rat model. The format is in vivo. The note with it: doses ranging from twice 1 mg/kg to twice 10 mg/kg by subcutaneous route in the rat, at time 0 and 3 hours; serum Ca at 6 hours. As for the experimental part:
Hypercalcemia induced by the parathyroid hormone (PTH) in a thyroparathyroidectomized (TPXT) rat model
Stimulation of bone resorption is induced in TPXT rats by perfusion of PTH and the variations of bone resorption are monitored by the concentration of calcium in the serum.
Male Sprague Dawley rats weighing 150-200 g are thyroparathyroidectomized. The rats are subjected to a standard diet containing 7 g Ca/kg (UAR) and Volvic water. The effectiveness of the thyroparathyroidectomy is tested by measuring the concentrations of Ca in the serum 8 days after the operation in animals which have been starved since the previous day. The rats are considered as thyroparathyroidectomized when the Ca levels in the serum are less than 80 mg/l. The PTH (1-34) of the rat (Bachem) is dissolved in 0.15M of NaCl Cys.HCl 2% and delivered by osmotic minipumps (ALZET 2001D) at a dose of 200 pmol/kg/h. The minipumps are introduced into the intraperitoneal cavities under anaesthesia (ketamine—75 mg/kg and acepromazine—2.5 mg/kg) of the TPXT rats which have been starved since the previous day. The control TPXT rats receive the minipumps filled with the PTH vehicle.
Either the product to be tested or the vehicle (controls and rats treated with the PTH) are administered twice by sub-cutaneous route (2 ml/kg of body weight) at time 0 and 3 hours after the start of the infusion of PTH. The test is continued for the next 6 hours. At the end of the treatment, all the blood is collected after decapitation. The blood samples are centrifuged at 3000 rpm for 15 minutes (CR422 Jouan) in order to obtain the serum.
The total concentrations of Ca in the serum are measured by colorimetry (Ciba-Corning) using an IEMS Labsystems microplate reading system, at 540 nm.
The difference between the average calcemia values of the treated rats and the control groups is analyzed by variance and by the Dunnett test.
The activity of a product is calculated by the following formula: […]
Regarding `Cc1c(NC[C@H](NC(=O)OCc2ccccc2)C(=O)O)ncnc1N1CCC(c2ccc3c(n2)NCCC3)CC1` [Example 6, 3-[[5-methyl-6-[4-(1,2,3,4-tetrahydro-1,8-naphthyridin-7-yl)-1-piperidinyl]-4-pyrimidinyl]amino]-N-[(phenylmethoxy)carbonyl]alanine, bis(trifluoroacetate)], the “activity against PTH-induced hypercalcemia (total Ca in the serum)” value is “active”. Turning to `CCc1c(NC[C@H](NC(=O)OCc2ccccc2)C(=O)O)ncnc1N1CCC(c2ccc3c(n2)NCCC3)CC1` [Example 9, 3-[[5-ethyl-6-[4-(1,2,3,4-tetrahydro-1,8-naphthyridin-7-yl)-1-piperidinyl]-4-pyrimidinyl]amino]-N-[(phenylmethoxy)carbonyl]alanine, bis(trifluoroacetate)], the “activity against PTH-induced hypercalcemia (total Ca in the serum)” value is given as “active”. As to `CCc1c(NC[C@H](NC(=O)OCc2ccccc2)C(=O)OC(C)C)ncnc1N1CCC(c2ccc3c(n2)NCCC3)CC1` [Example 13, isopropyl 3-[[6-[4-(1,2,3,4-tetrahydro-1,8-naphthyridin-7-yl)-1-piperidinyl]-5-ethyl-4-pyrimidinyl]amino]-N-[(phenylmethoxy)carbonyl]alaninate], the “activity against PTH-induced hypercalcemia (total Ca in the serum)” value is “active”.
